# Test results: patent EP0245669B1, “Pharmaceutical preparation for preventing damage to living cells by free radicals, or for increasing the efficacy of organic sulphur compounds, and process for increasing the life span of isolated organs” (Medopharm Arzneimittelwerk Dr. Zillich GmbH & Co., priority 1986, dated 1987)
# Legend:
# weiblichen C3H Mäusen = assay: Radiation protection: survival of mice after gamma irradiation (cobalt-60) following i.p. pretreatment; assay type: in vivo, Mäuse; conditions: for Ueberlebensrate nach Bestrahlung mit 9 Gy % / Ueberlebensrate nach Bestrahlung mit 9 Gy Anzahl: 10 min before 9 Gy; for Ueberlebensrate nach Bestrahlung mit 9 Gy Anzahl / Ueberlebensrate nach Bestrahlung mit 10 Gy Anzahl / Ueberlebensrate nach Bestrahlung mit 11 Gy Anzahl: surviving/irradiated mice; for Ueberlebensrate nach Bestrahlung mit 11 Gy % / Ueberlebensrate nach Bestrahlung mit 11 Gy Anzahl: 30 min before 11 Gy
# Excerpt: In den nachfolgenden Beispielen wurde die synergistische Wirkung der durch die erfindungsgemässe Verwendung hergestellten pharmazeutischen Präparate mit organische Schwefelverbindungen enthaltenden Präparaten anhand des Strahlenschutzes getestet und es wurde auch die Strahlenschutzwirkung der Zinkionen enthaltenden Präparate mit bisher bekannten Strahlenschutzpräparaten an Mäusen getestet. Die Versuche wurden mit weiblichen C3H Mäusen (GL. Bomholtgard, Ry, Dänemark) durchgeführt, die 20 bis 22 g wogen. Die Mäuse wurden unter Bedingungen gehalten, wo sie so viel Standard-Nagetierfutter (Nafag Pellts) fressen und so viel Leitungswasser trinken können, wie sie wollten. Die Bestrahlung erfolgte mit Gammastrahlen aus einer Kobalt-60 Quelle. Es wurden unterschiedliche Bestrahlungen vorgenommen, und zwar mit 9 Gy, 10 Gy, 11 Gy, 12 Gy, 13 Gy und 14 Gy.
# 10 Minuten vor der Bestrahlung, 30 Minuten vor der Bestrahlung oder 120 Minuten vor der Bestrahlung wurde ein durch die erfindungsgemässe Verwendung hergestelltes synergistisch wirkendes pharmazeutisches Präparat, bzw. ein entsprechendes, Zinkionen enthaltendes Strahlenschutzpräparat oder ein aus dem Stand der Technik bekanntes Strahlenschutzpräparat zu Vergleichszwecken durch intraperitoneale Injektion verabreicht.
# Bei der Gruppe der Mäuse zu Vergleichszwecken, die ohne Verabreichung eines Strahlenschutzpräparates bestrahlt wurden, erfolgte 10 Minuten vor der Bestrahlung die Verabreichung von destilliertem Wasser. Bei diesen unbehandelten Mäusen überlebten nur 50% der Tiere eine Bestrahlung von 8 Gy, d.h. der LD₅₀-Wert betrug 8 Gy.
# Nach den Arbeitsweisen der vorangegangenen Beispiele 1 bis 4, wurden weitere Tests mit den genannten weiblichen Mäusen durchgeführt, und zwar unter Verwendung der angeführten Zinksalze. Die bei diesen Tests erzielten Ergebnisse sind in der nachfolgenden Tabelle I zusammengestellt. Für jede der angewandten Bestrahlungsstärken ist in der Rubrik "Anzahl" diejenige Anzahl der Mäuse angeführt, welche die Bestrahlung überlebten, geteilt durch die Gesamtzahl der Mäuse, welche bestrahlt wurden. Ein entsprechender Wert von 1/10 bedeutet also, dass von 10 bestrahlten Mäusen eine überlebt hatte. In der Spalte mit der Bezeichnung "Prozent", ist die Prozent-Ueberlebensrate angeführt. Bei einer überlebenden Maus pro 10 getesteten Mäusen beträgt diese Ueberlebensrate 10 %.
# Zu Vergleichszwecken sind in der nachfolgenden Tabelle III die Ueberlebensraten von Mäusen zusammengestellt, die nach dem in Beispiel 5 beschriebenen Verfahren einer Vorbehandlung mit einem bekannten schwefelhaltigen Strahlenschutzmittel unterworfen worden waren. Orientierende Vorversuche hatten gezeigt, dass diese Strahlenschutzmittel bereits ihre Wirkung verloren hatten, wenn sie zwei Stunden vor der Einwirkung der Bestrahlung verabreicht worden waren. Die Bestrahlung wurde, wie aus der Tabelle ersichtlich ist, zwei Minuten nach der Verabreichung, in den meisten Fällen 10 Minuten nach der Verabreichung, aber auch 30 Minuten, bzw. 120 Minuten nach der Verabreichung durchgeführt. Die Werte deuten darauf hin, dass 30 Minuten nach der Verabreichung die Schutzwirkung schon wieder deutlich nachgelassen hat. Für jede Bestrahlungsstärke ist wiederum die Anzahl der Tiere angeführt, die nach 30 Tagen überlebt haben, geteilt durch die Gesamtzahl der Tiere, die behandelt und bestrahlt worden waren.
# Anhand dieses Beispiels soll die synergistische Wirkung von Zinkionen und Schwefelverbindungen bezüglich eines Strahlenschutzes erläutert werden. Es wurde wieder in der gleichen Weise gearbeitet, wie in den vorangegangenen Beispielen 1 bis 3, bzw. 5, und es wurde auch die gleiche Art an weiblichen Mäusen getestet. Die Verabreichung der Zinkionen enthaltenden Lösung und der Lösung der Schwefelverbindung erfolgte entweder nacheinander oder gleichzeitig durch intraperitoneale Injektion.
# In allen Fällen wurde die Ueberlebensrate 30 Tage nach der Einwirkung der Bestrahlung bestimmt.
# Mäuse = assay: Toxicity of the zinc salts used as radiation protection agents (LD50); assay type: in vivo
# Procedure: In diesem Beispiel wurde die Toxizität der als Strahlenschutzmittel eingesetzten Zinksalze getestet.
# Der LD₅₀-Wert betrug für das Zinkaspartat 55 mg/kg Körpergewicht, für das Zinkchlorid 24 mg/kg Körpergewicht und für das Zinksulfat 45 mg/kg Körpergewicht.
# [1] = Table II: 10 mg/kg i.p., 30 min before 10 Gy
# [2] = Table II: 15 mg/kg i.p., 30 min before 10 Gy
# [3] = Table II, Zinksulfat: 15 mg/kg i.p.
# [4] = Table II, Zinksulfat: 15 mg/kg i.p., 10 min before 10 Gy
# [5] = Table II, Zinksulfat: 30 mg/kg i.p.
# [6] = Table II, Zinksulfat: 30 mg/kg i.p., 10 min before 10 Gy
# [7] = Table II, Zinksulfat: 22,5 mg/kg i.p.
# [8] = Table II, Zinksulfat: 22,5 mg/kg i.p., 10 min before 10 Gy
molecule,measurement,setting,value
[Cl-].[Cl-].[Zn+2] [Zinkchlorid],Ueberlebensrate nach Bestrahlung mit 9 Gy %,weiblichen C3H Mäusen; Table II: 10 mg/kg i.p.,20%
same,Ueberlebensrate nach Bestrahlung mit 9 Gy Anzahl,weiblichen C3H Mäusen; Table II: 10 mg/kg i.p.,2/10
same,Ueberlebensrate nach Bestrahlung mit 10 Gy %,weiblichen C3H Mäusen; [1],15%
same,Ueberlebensrate nach Bestrahlung mit 10 Gy Anzahl,weiblichen C3H Mäusen; [1],3/20
same,Ueberlebensrate nach Bestrahlung mit 9 Gy %,weiblichen C3H Mäusen; Table II: 15 mg/kg i.p.,30%
same,Ueberlebensrate nach Bestrahlung mit 9 Gy Anzahl,weiblichen C3H Mäusen; Table II: 15 mg/kg i.p.,3/30
same,Ueberlebensrate nach Bestrahlung mit 10 Gy %,weiblichen C3H Mäusen; [2],20%
same,Ueberlebensrate nach Bestrahlung mit 10 Gy Anzahl,weiblichen C3H Mäusen; [2],4/20
same,Ueberlebensrate nach Bestrahlung mit 9 Gy %,weiblichen C3H Mäusen; Table II: 20 mg/kg i.p.,10%
same,Ueberlebensrate nach Bestrahlung mit 9 Gy Anzahl,weiblichen C3H Mäusen; Table II: 20 mg/kg i.p.,0/10
same,LD₅₀-Wert,Mäuse,24 mg/kg Körpergewicht
Zinksulfat,Ueberlebensrate nach Bestrahlung mit 9 Gy %,weiblichen C3H Mäusen; [3],0%
same,Ueberlebensrate nach Bestrahlung mit 9 Gy Anzahl,weiblichen C3H Mäusen; [3],1/10
same,Ueberlebensrate nach Bestrahlung mit 10 Gy %,weiblichen C3H Mäusen; [4],22%
same,Ueberlebensrate nach Bestrahlung mit 10 Gy Anzahl,weiblichen C3H Mäusen; [4],2/9
same,Ueberlebensrate nach Bestrahlung mit 11 Gy %,weiblichen C3H Mäusen; [3],0%
same,Ueberlebensrate nach Bestrahlung mit 11 Gy Anzahl,weiblichen C3H Mäusen; [3],0/20
same,Ueberlebensrate nach Bestrahlung mit 9 Gy Anzahl,weiblichen C3H Mäusen; [5],0/10
same,Ueberlebensrate nach Bestrahlung mit 10 Gy %,weiblichen C3H Mäusen; [6],33%
same,Ueberlebensrate nach Bestrahlung mit 10 Gy Anzahl,weiblichen C3H Mäusen; [6],3/9
same,Ueberlebensrate nach Bestrahlung mit 11 Gy %,weiblichen C3H Mäusen; [5],5%
same,Ueberlebensrate nach Bestrahlung mit 11 Gy Anzahl,weiblichen C3H Mäusen; [5],1/20
same,Ueberlebensrate nach Bestrahlung mit 9 Gy %,weiblichen C3H Mäusen; [7],80%
same,Ueberlebensrate nach Bestrahlung mit 9 Gy Anzahl,weiblichen C3H Mäusen; [7],8/10
same,Ueberlebensrate nach Bestrahlung mit 10 Gy %,weiblichen C3H Mäusen; [8],33%
same,Ueberlebensrate nach Bestrahlung mit 10 Gy Anzahl,weiblichen C3H Mäusen; [8],3/9
same,Ueberlebensrate nach Bestrahlung mit 11 Gy %,weiblichen C3H Mäusen; [7],0%
same,Ueberlebensrate nach Bestrahlung mit 11 Gy Anzahl,weiblichen C3H Mäusen; [7],0/20
same,LD₅₀-Wert,Mäuse,45 mg/kg Körpergewicht
